Experimental data reported in patent US9423396B2, “Bodipy structure fluorescence probes for diverse biological applications” (National University of Singapore, priority 2011, dated 2016).

Assay: Spectroscopic measurements (absorption, emission, quantum yield, extinction coefficient)
Format: physicochemical
[1] = BDNCA library, extinction coefficient; in M-1 cm-1 (unit assumed)
[2] = BDNCA library, fluorescence emission
[3] = BDNCA library, difference emission minus absorption

| Structure (SMILES) | Qunt. Yield (BDNCA library) | Abs (BDNCA library, absorption) [nm] | ε [1] | Flu [2] | Flu-Abs [3] | Abs (absorption maximum, BDNCA library) [nm] | Flu-Abs (difference of emission and absorption maxima) | ε (extinction coefficient, BDNCA library; in M-1 cm-1 (unit assumed)) | Flu (fluorescence emission maximum, BDNCA library) | Qunt. Yield (quantum yield, BDNCA library) |
| --- | --- | --- | --- | --- | --- | --- | --- | --- | --- | --- |
| CC1=CC(/C=C/c2ccc(N(C)CCC#N)cc2)=[N+]2C1=C(c1ccc(NC(=O)CCl)cc1)c1cccn1[B-]2(F)F [BDNCA-3] | weak | 605 | 73,593 | weak | – | – | – | – | – | – |
| CC1=CC(/C=C/c2ccc(OCc3ccccc3)c(OCc3ccccc3)c2)=[N+]2C1=C(c1ccc(NC(=O)CCl)cc1)c1cccn1[B-]2(F)F [BDNCA-4] | 0.18 | 570 | 79,908 | 611 | 41 | – | – | – | – | – |
| CC1=CC(/C=C/c2c3ccccc3cc3ccccc23)=[N+]2C1=C(c1ccc(NC(=O)CCl)cc1)c1cccn1[B-]2(F)F [BDNCA-6] | weak | 536 | 41,465 | weak | – | – | – | – | – | – |
| COc1ccc(/C=C/C2=[N+]3C(=C(c4ccc(NC(=O)CCl)cc4)c4cccn4[B-]3(F)F)C(C)=C2)cc1OCc1ccccc1 [BDNCA-7] | 0.19 | 570 | 87,872 | 616 | 46 | – | – | – | – | – |
| CC1=CC(/C=C/c2ccc(-n3ccnc3)cc2)=[N+]2C1=C(c1ccc(NC(=O)CCl)cc1)c1cccn1[B-]2(F)F [BDNCA-8] | 0.04 | 562 | 29,108 | 582 | 20 | – | – | – | – | – |
| Cc1cccc(/C=C/c2cc(C)c3n2[B-](F)(F)[N+]2=CC=CC2=C3c2ccc(NC(=O)CCl)cc2)c1 [BDNCA-9] | 0.10 | 556 | 47,780 | 575 | 19 | – | – | – | – | – |
| CC1=CC(/C=C/c2ccc(Cl)cc2)=[N+]2C1=C(c1ccc(NC(=O)CCl)cc1)c1cccn1[B-]2(F)F [BDNCA-12] | 0.10 | 557 | 49,428 | 576 | 19 | – | – | – | – | – |
| CC1=CC(/C=C/c2ccc(N(c3ccccc3)c3ccccc3)cc2)=[N+]2C1=C(c1ccc(NC(=O)CCl)cc1)c1cccn1[B-]2(F)F [BDNCA-14] | – | 599 | 35,149 | – | – | – | – | – | – | – |
| CC1=CC(/C=C/c2ccc(C#N)cc2)=[N+]2C1=C(c1ccc(NC(=O)CCl)cc1)c1cccn1[B-]2(F)F [BDNCA-15] | 0.13 | 560 | 49,977 | 578 | 18 | – | – | – | – | – |
| CCCCN(CCCC)c1ccc(/C=C/C2=[N+]3C(=C(c4ccc(NC(=O)CCl)cc4)c4cccn4[B-]3(F)F)C(C)=C2)cc1 [BDNCA-17] | weak | 627 | 52,998 | weak | – | – | – | – | – | – |
| CC1=CC(/C=C/c2ccc(C(C)C)cc2)=[N+]2C1=C(c1ccc(NC(=O)CCl)cc1)c1cccn1[B-]2(F)F [BDNCA-19] | 0.13 | 558 | 61,236 | 580 | 22 | – | – | – | – | – |
| CC1=CC(/C=C/c2cccc(Oc3ccccc3)c2)=[N+]2C1=C(c1ccc(NC(=O)CCl)cc1)c1cccn1[B-]2(F)F [BDNCA-20] | 0.11 | 556 | 51,625 | 576 | 20 | – | – | – | – | – |
| CC1=CC(/C=C/c2cccc3ccccc23)=[N+]2C1=C(c1ccc(NC(=O)CCl)cc1)c1cccn1[B-]2(F)F [BDNCA-25] | 0.09 | 566 | 32,952 | 594 | 28 | – | – | – | – | – |
| CC1=CC(/C=C/c2ccccc2)=[N+]2C1=C(c1ccc(NC(=O)CCl)cc1)c1cccn1[B-]2(F)F [BDNCA-27] | 0.11 | 554 | 73,318 | 577 | 23 | – | – | – | – | – |
| COc1cc(/C=C/C2=[N+]3C(=C(c4ccc(NC(=O)CCl)cc4)c4cccn4[B-]3(F)F)C(C)=C2)cc(Cl)c1O [BDNCA-29] | 0.01 | 567 | 25,812 | 597 | 30 | – | – | – | – | – |
| COc1ccc(/C=C/c2cc(C)c3n2[B-](F)(F)[N+]2=CC=CC2=C3c2ccc(NC(=O)CCl)cc2)c2ccccc12 [BDNCA-32] | 0.06 | 583 | 27,735 | 649 | 66 | – | – | – | – | – |
| CC1=CC(/C=C/c2ccc(C)c3ccccc23)=[N+]2C1=C(c1ccc(NC(=O)CCl)cc1)c1cccn1[B-]2(F)F [BDNCA-36] | 0.08 | 572 | 30,755 | 610 | 38 | – | – | – | – | – |
| CC1=CC(/C=C/c2csc3ccccc23)=[N+]2C1=C(c1ccc(NC(=O)CCl)cc1)c1cccn1[B-]2(F)F [BDNCA-37] | 0.14 | 567 | 71,121 | 600 | 33 | – | – | – | – | – |
| CC(=O)Oc1ccc(/C=C/c2cc(C)c3n2[B-](F)(F)[N+]2=CC=CC2=C3c2ccc(NC(=O)CCl)cc2)cc1 [BDNCA-41] | – | – | – | – | – | 565 | 29 | 47,780 | 594 | 0.13 |
| COc1ccc(Oc2cccc(/C=C/C3=[N+]4C(=C(c5ccc(NC(=O)CCl)cc5)c5cccn5[B-]4(F)F)C(C)=C3)c2)cc1 [BDNCA-42] | 0.08 | 556 | 54,645 | 577 | 21 | – | – | – | – | – |
| COc1cc(C=CC=CC2=[N+]3C(=C(c4ccc(NC(=O)CCl)cc4)c4cccn4[B-]3(F)F)C(C)=C2)ccc1OC(C)=O [BDNCA-44] | weak | 580 | 12,632 | weak | – | – | – | – | – | – |
| CCCCCCOc1ccc(/C=C/C2=[N+]3C(=C(c4ccc(NC(=O)CCl)cc4)c4cccn4[B-]3(F)F)C(C)=C2)cc1 [BDNCA-45] | 0.13 | 566 | 82,929 | 598 | 32 | – | – | – | – | – |
| CCCCOc1ccc(/C=C/C2=[N+]3C(=C(c4ccc(NC(=O)CCl)cc4)c4cccn4[B-]3(F)F)C(C)=C2)cc1 [BDNCA-46] | 0.10 | 566 | 42,563 | 598 | 32 | – | – | – | – | – |
| C=CCOc1ccc(/C=C/C2=[N+]3C(=C(c4ccc(NC(=O)CCl)cc4)c4cccn4[B-]3(F)F)C(C)=C2)cc1 [BDNCA-48] | 0.07 | 566 | 44,211 | 597 | 31 | – | – | – | – | – |
| CCOC(OCC)c1ccc(/C=C/C2=[N+]3C(=C(c4ccc(NC(=O)CCl)cc4)c4cccn4[B-]3(F)F)C(C)=C2)cc1 [BDNCA-49] | 0.03 | 564 | 20,046 | 581 | 17 | – | – | – | – | – |
| Cc1cc(/C=C/c2ccc(OCc3ccc(Br)cc3)cc2)n2c1C(c1ccc(NC(=O)CCl)cc1)=C1C=CC=[N+]1[B-]2(F)F [BDNCA-52] | 0.05 | 556 | 36,247 | 580 | 24 | – | – | – | – | – |
| CCOc1ccc(/C=C/C2=[N+]3C(=C(c4ccc(NC(=O)CCl)cc4)c4cccn4[B-]3(F)F)C(C)=C2)cc1OCC [BDNCA-53] | 0.06 | 570 | 31,579 | 621 | 51 | – | – | – | – | – |
